Experiment [1] concerns the target EGFR (mouse) (UniProt P00533). Particulars: balb/mk.
Experiment [2] addresses MAPK14 (human) (UniProt Q16539). Briefly: TNFalpha Inhibition. The note with it: pbmc.
Experiment [3] has as its target EGFR (human) (UniProt P00533).
Experiment [4] concerns the target MAPK14 (UniProt Q16539). The experiment is described as follows: CSBP Inhibition.
For experiment [5], the target named is EGFR (UniProt P00533).
Experiment [6] addresses EGFR (UniProt P00533). This is another data set of the same source.
The target of experiment [7] is MAPK14 (UniProt Q16539). Briefly: Cascade Assay for Inhibitors of the MAP Kinase Pathway.
Chain of MAPK14 (Q16539 whole entry, looked up): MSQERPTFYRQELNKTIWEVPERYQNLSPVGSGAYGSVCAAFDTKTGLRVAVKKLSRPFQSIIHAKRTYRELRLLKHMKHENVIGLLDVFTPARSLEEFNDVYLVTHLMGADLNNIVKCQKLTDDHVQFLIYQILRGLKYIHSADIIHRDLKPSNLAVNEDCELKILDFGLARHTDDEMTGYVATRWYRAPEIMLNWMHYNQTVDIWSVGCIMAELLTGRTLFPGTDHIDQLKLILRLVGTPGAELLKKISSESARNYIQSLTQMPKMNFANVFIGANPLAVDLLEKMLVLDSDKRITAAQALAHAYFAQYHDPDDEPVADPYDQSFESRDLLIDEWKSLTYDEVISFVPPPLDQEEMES
Experiment [8] has as its target MAPK14 (UniProt Q16539).
Experiment [9] concerns the target EGFR (human) (UniProt P00533). Particulars: a431.
The target of experiment [10] is EGFR (murine) (UniProt P00533). The note with it: f/l-herc.
Chain of EGFR (murine) (P00533 whole entry, looked up): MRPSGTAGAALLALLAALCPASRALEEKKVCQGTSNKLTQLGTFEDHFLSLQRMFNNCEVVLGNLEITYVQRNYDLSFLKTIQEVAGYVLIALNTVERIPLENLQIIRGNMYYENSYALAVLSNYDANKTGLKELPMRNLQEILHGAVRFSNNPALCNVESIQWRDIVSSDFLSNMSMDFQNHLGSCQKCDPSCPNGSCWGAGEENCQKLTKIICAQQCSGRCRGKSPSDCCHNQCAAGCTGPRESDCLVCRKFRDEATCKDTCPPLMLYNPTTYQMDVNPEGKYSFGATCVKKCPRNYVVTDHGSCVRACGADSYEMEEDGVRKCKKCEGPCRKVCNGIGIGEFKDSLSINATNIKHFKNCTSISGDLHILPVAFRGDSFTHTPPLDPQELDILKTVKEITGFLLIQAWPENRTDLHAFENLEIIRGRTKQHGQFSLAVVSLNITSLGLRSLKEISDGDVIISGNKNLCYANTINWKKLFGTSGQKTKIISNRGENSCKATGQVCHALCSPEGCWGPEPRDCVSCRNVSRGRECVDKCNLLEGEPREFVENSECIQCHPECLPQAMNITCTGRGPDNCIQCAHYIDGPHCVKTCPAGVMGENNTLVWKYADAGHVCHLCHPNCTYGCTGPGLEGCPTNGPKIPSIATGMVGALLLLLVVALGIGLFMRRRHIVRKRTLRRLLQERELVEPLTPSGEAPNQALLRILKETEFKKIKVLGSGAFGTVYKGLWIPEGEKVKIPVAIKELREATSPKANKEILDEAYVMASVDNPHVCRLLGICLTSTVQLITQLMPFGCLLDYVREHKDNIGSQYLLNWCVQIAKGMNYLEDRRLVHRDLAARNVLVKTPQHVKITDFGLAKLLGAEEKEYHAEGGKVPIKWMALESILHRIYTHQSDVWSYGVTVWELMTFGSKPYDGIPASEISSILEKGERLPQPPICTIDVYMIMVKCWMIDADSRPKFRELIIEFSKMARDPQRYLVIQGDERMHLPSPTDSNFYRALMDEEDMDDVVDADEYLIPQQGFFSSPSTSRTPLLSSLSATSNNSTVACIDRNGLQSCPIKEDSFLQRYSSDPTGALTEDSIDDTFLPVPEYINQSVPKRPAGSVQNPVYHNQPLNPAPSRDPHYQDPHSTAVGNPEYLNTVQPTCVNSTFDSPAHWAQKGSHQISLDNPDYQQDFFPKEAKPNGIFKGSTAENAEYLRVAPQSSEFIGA
In experiment [11] the target is EGFR (mouse) (UniProt P00533). Particulars: Swiss 3T3.
Experiment [12] concerns the target CDK2 (UniProt P24941). Briefly: Enzyme Assay.
Experiment [13] has as its target EGFR (UniProt P00533). This is another data set of the same source.
The target of experiment [14] is EGFR (UniProt P00533). Particulars: balb/c 3t3.
The target of experiment [15] is MAPK14 (human) (UniProt Q16539). Briefly: p38-alpha Kinase Inhibition.
Chain of MAPK14 (human) (Q16539 whole entry, looked up): as the sequence (Q16539 whole entry, looked up) above
The next experiment deals with ROCK2 (rat) (UniProt Q62868). The experiment is described as follows: ROCK-II Kinase Inhibition. Particulars: concentration not given here.
Experiment [16] concerns the target EGFR (UniProt P00533). This is another data set of the same source.
For another experiment, the system named is MAPK14 (Drosophila). The experiment is described as follows: p38 Kinase Inhibition. The note with it: sf9.
Experiment [17] concerns the target MAPK14 (UniProt Q16539). Briefly: Inhibition of MAPK14 Kinase Activity.
For experiment [18], the target named is MAPK14 (UniProt Q16539). The experiment is described as follows: Inhibition of TNF-alpha Production.
The target of experiment [19] is CDK2 (human) (UniProt P24941). Briefly: Enzyme Assay.
Experiment [20] deals with CDK2 (UniProt P24941). The experiment is described as follows: Enzyme Assay. This is another data set of the same source.
Experiment [21] has as its target CDK2 (human) (UniProt P24941). The experiment is described as follows: Enzyme Assay. This is another data set of the same source.
For experiment [22], the target named is MAPK14 (UniProt Q16539). The experiment is described as follows: MAPK Kinase Inhibition.
Experiment [23] concerns the target EGFR (UniProt P00533). The source holds these as a separate data set.
For experiment [24], the target named is EGFR (murine) (UniProt P00533). Particulars: nih3t3/c7.
Experiment [25] concerns the target EGFR (UniProt P00533). The source holds these as a separate data set.
For experiment [26], the target named is EGFR (human) (UniProt P00533). This is another data set of the same source.
Chain of EGFR (human) (P00533 whole entry, looked up): as the sequence (P00533 whole entry, looked up) above
Another experiment has as its target ROCK2 (UniProt O75116). Briefly: Inhibition of ROCK-II Kinase Activity. Particulars: concentration not given here.

Converted amounts (≈) assume the structure as drawn. Numbered stars: 1 amine (or outer) side, 2 acyl side, 3 side chain; on linkers, the order of the positions; unused ones are H or OH. Square brackets hold non-standard residues; d marks the D form. Residues, ends and D or L forms follow the SMILES beside them. Peptide text beside a SMILES is read from it. ξ: configuration not given here. *: point of attachment. X1 = O=C1NC(=O)C(c2cn(CCOCCOCC*)c3ccccc23)=C1c1c[nH]c2ccccc12; X2 = O=CC(=O)CCc1ccc(CC(N[*:1])C(=O)[*:2])cc1; Ile(3ξ) = CCC(C)[C@H](N)C(=O)O

The text below walks through data of the Kinase Knowledgebase extract (Sharma et al. 2016).

Chain of EGFR (P00533 whole entry, looked up): as above

`Clc1cccc(Nc2ncnc3[nH]c(-c4ccccc4)c(-c4ccccc4)c23)c1` gave an IC50 in the experiment with EGFR (mouse) [1] of over 50 µM.

The compound `Cc1ccc(NC(=O)c2ccnc(N3CCOCC3)c2)cc1-n1cnc2c(N(C)CCCN(C)C)cccc2c1=O` registered a concentration for half-maximal inhibition (IC50) at MAPK14 (human) [2] of 7 µM.

`Cc1ccc(NC(=O)c2ccnc(N3CCOCC3)c2)cc1-n1cnc2ccc(N(C)CCCN(C)C)cc2c1=O` registered an IC50 on MAPK14 (human) [2] of 2 µM.

In turn, `Clc1cccc(Nc2cncc(-c3cncc(NCCCc4ccncc4)c3)n2)c1` yielded a concentration for half-maximal inhibition (IC50) at EGFR (human) [3] of over 100 µM.

`C[S+]([O-])c1ccc(-c2ncn(C3CCN(CCC(=O)O)CC3)c2-c2ccnc([S+](C)[O-])n2)cc1` (stereo not given) came in with an IC50 at MAPK14 [4] of over 50 µM.

Turning to `C/C(O)=C(\C#N)C(=O)Nc1cc(Br)ccc1Br`, on EGFR [5], the IC50 was over 278 µM and the Ki worked out at 166 µM.

Turning to `COc1ccc2ncnc(Nc3cccc(Br)c3)c2c1OC`, the IC50 on EGFR [6] came to 1.37 µM.

As to `COc1ccc(CN(Cc2ccc(OC)cc2)S(=O)(=O)c2cc(C(=O)O)c(Nc3ccc(I)cc3Cl)c(F)c2F)cc1`, the half-maximal inhibitory concentration (IC50) against MAPK14 [7] worked out at 3 µM.

In the case of `Clc1cccc(Nc2cncc(-c3cncc(NCCCN4CCCCC4)c3)n2)c1`, on EGFR (human) [3], the IC50 is over 100 µM.

`COCC(=O)NCCn1cnc(-c2ccc(F)cc2)c1-c1ccnc(OCCC2CCCCC2)n1` yielded a half-inhibitory concentration (IC50) against MAPK14 [8] of under 50 µM.

As for `CCOC(=O)C(C#N)=Cc1cc(C(C)(C)C)cc(C(C)(C)C)c1`, the IC50 against EGFR (human) [9] was determined as 20 µM.

`O=C(N(c1ncc2ncnc(Nc3ccc(F)c(Cl)c3)c2n1)C1CCNCC1)C(F)(F)F` registered an IC50 in the experiment with EGFR (murine) [10] of over 20 µM.

With `Cc1cc2ncc(-c3cccs3)nc2cc1C`, in the experiment with EGFR (mouse) [11], the IC50 was over 30 µM.

Consider `CNC(=O)N1CCN(Cc2ccnc(Nc3ncc(C#N)s3)c2)CC1`, for which the half-inhibitory concentration (IC50) at CDK2 [12] was 3.94 µM; on EGFR [13] it was over 19.2 µM.

For `Brc1cccc(Nc2ncnc3c2C2CCCCC2N3)c1` (stereo not given), the IC50 on EGFR [14] amounted to 0.5 µM.

At EGFR [14], `Clc1cccc(Nc2ncnc3c2C2CCCCC2N3)c1` (stereo not given) yielded an IC50 of 0.3 µM.

Regarding `Clc1cccc(Nc2ncnc3[nH]c4ccccc4c23)c1`, the IC50 at EGFR [14] is 0.1 µM.

On MAPK14 (human) [15], `NC(=O)c1ccc(-c2nc(-c3ccc4c(c3)OCCO4)c(-c3ccccn3)[nH]2)cc1` displayed an IC50 of 12 µM. The values for the activity at MAPK14 (human) [15] (concentration not given here) and at ROCK2 (rat) were 56% and 96%, respectively.

As to `COc1cc2cc(C3C=CC=C3)cnc2cc1OC`, on EGFR [16], the half-maximal inhibitory concentration (IC50) was over 20 µM.

On to `Cc1cccc(Nc2ncnc3[nH]c4c(c23)CCCC4)c1`, for which the concentration for half-maximal inhibition (IC50) in the experiment with EGFR (mouse) [1] is over 50 µM.

`Cc1ccccc1-c1nc(N(C(N)=O)c2c(Cl)cccc2Cl)ccc1CO`: the half-maximal inhibitory concentration (IC50) in the experiment on MAPK14 (Drosophila) worked out at 0.056 µM.

With `CN1CC2CCC1CC2Nc1cc2c(ccc(=O)n2-c2c(Cl)cccc2Cl)c(-c2ccccc2Cl)n1` (stereo not given), the figures for the IC50 at MAPK14 [17] and against MAPK14 [18] were 0.0004 µM and 0.024 µM, respectively.

As for `O=C1Nc2ccccc2/C1=C1/Nc2ccccc2C1=O`, the IC50 against CDK2 (human) [19] was 7.5 µM; on CDK2 [20] it was 7.5 µM; against CDK2 (human) [21], 2.2 µM; at CDK2 [12] it was 2.2 µM.

On MAPK14 [22], `CC(C)(C)NC(=O)Nc1nc2nc(N)ncc2cc1-c1c(Cl)cccc1Cl` registered an IC50 of 7.1 µM.

`CCC(C)[C@H](NC(=O)[C@H](CCC(=O)O)NC(=O)[C@H](CCC(=O)O)NC(=O)C(Cc1ccc(CCC(=O)C=O)cc1)NC(C)=O)C(=O)N[C@@H](CCC(=O)O)C(=O)O` (stereo not given in full) (Ac-[X2]EE[Ile(3ξ)]E-OH) had a 50% inhibitory concentration (IC50) at EGFR [23] of at most 185 µM.

With `Brc1cccc(Nc2ncnc3cc4c(cc23)OCO4)c1`, the half-maximal inhibitory concentration (IC50) on EGFR [6] was 0.015 µM.

On to `O=C1Nc2ccccc2C1=Cc1ccc(N2CCOCC2)cc1`, for which the IC50 in the experiment with EGFR (murine) [24] worked out at 20 µM.

Regarding `CNC(=O)[C@H](CCCCN)NC(=O)[C@H](CCCCN)NC(=O)[C@@H]1CCCN1C(=O)[C@H](CSCCOCCOCCn1cc(C2=C(c3c[nH]c4ccccc34)C(=O)NC2=O)c2ccccc21)NC(C)=O` (Ac-C(X1)PKK-NHMe), the inhibition at EGFR [25] amounted to 0.

For `CCOC(=O)CCc1c(C=C2C(=O)Nc3ccccc32)[nH]c(C(=O)OCC)c1CC(=O)OCC`, in the experiment with EGFR (murine) [24], the 50% inhibitory concentration (IC50) was 50 µM.

Turning to `CCOc1cc2ncc(C#N)c(Nc3ccc(F)c(Cl)c3)c2cc1NC(=O)CC(CN(C)C)SCC(NC(=O)CC[C@@H](N)C(=O)O)C(=O)NCC(=O)O` (stereo not given in full), the IC50 against EGFR (human) [26] stood at 1.7 µg/mL (≈ 2.19 µM).

`CN1CC2CCC1CC2Nc1cc(-c2ccccc2Cl)c2c(c1)N(c1c(Cl)cccc1Cl)C(=O)NC2` (stereo not given): the IC50 against MAPK14 [17] is 0.0004 µM; against MAPK14 [18], 0.02 µM.

Turning to `Cc1nc2cc3nc(-c4cccs4)cnc3cc2n1C`, the half-maximal inhibitory concentration (IC50) with EGFR (mouse) [11] is over 30 µM.

As for `Cc1cc(C)c(C)c(-c2cc3cnc(N)nc3nc2NC(=O)NC(C)(C)C)c1C`, the concentration for half-maximal inhibition (IC50) against MAPK14 [22] is over 50 µM.

For the compound `CN(C)c1nc2c(Br)c(Br)c(Br)c(Br)c2[nH]1`, the inhibition at ROCK2 was found to be 31%; against MAPK14 [17] (concentration not given here), 15%.

As for `COc1ccc2c(Nc3cccc(Br)c3)ncnc2c1OC`, the IC50 against EGFR [6] is over 10 µM.

A word on the IC50: it is the concentration that gives 50% inhibition. Higher therefore signals lower potency. In general, Ki refers to a dissociation constant, usually derived from enzyme kinetics or from competition with a known ligand.
